# Read-outs that look alike come from different tables or passages of the source.
# Columns and labels:
# SOD1 mutant mice [1] = test system: SOD1 mutant mice
# Description: (§1) Mice Studies were performed on 8 week old female mice overexpressing mutated human superoxide dismutase (codon 93 glycine→alanine G93A (TgN[SOD1-G93A]1Gur(Gurney et al., 1994, Science 264(5166):1772-1775) Jackson Laboratory, Bar Harbor, Me.; “SDO1 mice”) and their wild type littermates. Mice were housed on a 12 hour day/light cycle and (beginning at 45 d of age) allowed ad libitum access to either nimesulide (NMS)-supplemented (19 g/10 kg) chow, delivering ˜[…] per day to the animal, or, as a control, plain NIH-07 formula cold press chow processed into identical ½ inch pellets (Zeigler Bros Inc, Garners, Pa.). Genotyping was conducted at 21 days of age as described in Gurney et al., 1994, Science 264(5166):1772-1775.
# (§2) Rotarod and Grid Walking Tests. To assess balance, coordination and muscle strength mice were tested on the accelerating rotarod (7650 Ugo Basile Biol. Res. App., Italy) and grid walking tests. […] For the grid walking test, animals were placed into the distal end of a walled chamber (15 cm W×60 cm L, 20 cm high walls and a wire mesh bottom) suspended 1 meter above the floor. The number of foot misses (entire paw and portion of limb pokes through the wire mesh) while crossing a distance of 60 cm was recorded.
# Prostaglandin E2 = conditions: SOD1 (or WT) mice, prophylactic nimesulide in the diet, FIG. 4B
# Description: as §1
# (§3) Pathology examination. To evaluate molecular changes during the period of therapeutic efficacy of NMS, a sub group of mice were sacrificed by cervical dislocation 95-105 d of age. Blood, brain and lumbar spinal cord samples were then rapidly harvested and prepared for analysis.
# Nimesulide and Prostaglandin E2. […] Prostaglandin-E2 expression in the left caudal hemisphere of the brain (including substantia nigra, and motor cortex) was measured by immuno-assay (Cayman Ann Arbor, Mich.), which was performed as follows. […]
# [2] = for effect on weight: SOD1 or wild type mice, nimesulide diet vs normal diet, weighed weekly
# Description: as §1
# Health/Neurologic Status. To assess health status mice were weighed weekly and examined for changes in lacrimation/salivation, palpebral closure, ear twitch and pupillary responses, whisker orienting, postural and righting reflexes and Body Condition Score (BCS) (Ullman-Cullere 1999). Finally, a general pathological examination was conducted at time of sacrifice.
# [3] = geriatric patients, periods greater than two years; cited from earlier work
# [4] = test system: 4.8 kDa protein (also 5.3 and 5.7 kDa proteins) in spinal cord of SOD1 mice
# Description: as §1, §3
# SOD1 mutant mice [5] = test system: SOD1 mutant mice; remark: listed apart in the source
# Description: as §1, §2
# in vivo = conditions: for Kp: female, mouse, brain (cerebral cortex parenchyma) relative to serum, oral
# Description: as §1, §3
# Nimesulide and Prostaglandin E2. […] Prostaglandin-E2 expression in the left caudal hemisphere of the brain (including substantia nigra, and motor cortex) was measured by immuno-assay (Cayman Ann Arbor, Mich.), which was performed as follows. Briefly, pulverized brain tissue stored in liquid N2 was homogenized in 0.1M phosphate-buffered saline (containing 1 mM EDTA and 10 μM indomethacin), mixed with an equal volume of ethanol, and centrifuged. The supernatant was diluted with 50 mM acetic buffer and purified through an affinity column (Cayman). The column was equilibrated with column buffer (0.1M phosphate-buffered saline, 7.7 mM NaN3, 0.5 M […]) followed by UltraPure water, the supernatant was then eluted from the 4 ml column by adding the elution solution and allowing it to pass through the packing material. The eluate was then evaporated and re-dissolved in enzyme-linked immunoassay buffer, applied to a 96-well plate pre-coated with goat anti-mouse IgG and incubated with PGE2 monoclonal antibody and (recovery tracer) for 18 hr at 4° C. […]
# [6] = SOD1 mice on NMS diet, control diet mean onset at 108 days
structure (smiles),measurement,setting,value
"CS(=O)(=O)Nc1ccc([N+](=O)[O-])cc1Oc1ccccc1 [nimesulide, 4-nitro-2-phenoxymethanesulfonanilide]",onset of impairment relative to untreated counterparts,"SOD1 mutant mice [1]; NMS-treated SOD1 mice, rotarod and grid walking tests",significant delay
same,age until which motor skill integrity was exhibited,SOD1 mutant mice [1]; [6],120 days of age
same,delay in the onset of motor impairment,"SOD1 mutant mice [1]; SOD1 mice, nimesulide-supplemented chow vs control diet, n=6, P<0.05, FIG. 1",10 days
same,PG-E2 content,Prostaglandin E2,decreased
same,effect on weight,[2],No detectable difference
same,effect on weight,[2]; listed as NMS,no effect
same,health/neurologic tests,"[2]; all groups, SOD1 groups showed decreased BCS and impaired reflexes after hind limb paralysis",unremarkable
same,tolerability,[3],well tolerated
same,level of approximately 4.8 kDa protein (negatively charged at pH 9) in spinal cord,"[4]; SOD1 mice with NMS treatment, prior to onset of motor impairment, FIGS. 3A and B",regulated back to control levels
same,levels of approximately 5.3 and 5.7 kDa proteins,"[4]; SOD1 mice, lumbar spinal cord, proteins increase with disease progression",decrease
same,age until which motor skill integrity was exhibited,SOD1 mutant mice [5]; [6],124 days of age
same,motor ability maintained beyond SOD1 mice fed control diet,"SOD1 mutant mice [5]; SOD1 mice, nimesulide diet, n=6, P<0.05 on days 113, 115, 122, 124, FIG. 2",10 days
same,nimesulide concentration in serum,"in vivo; delivery through feeding, 2-3 months treatment, at onset of bilateral hind-limb paralysis, FIG. 4A",approximately 30 μM
same,Kp,in vivo; TgN[SOD1-G93A]1Gur (SOD1-G93A transgenic),~0.1
same,Kp,in vivo,0.1
